From patent US20140107316A1, “DRUG DELIVERY CONJUGATES CONTAINING UNNATURAL AMINO ACIDS AND METHODS FOR USING” (priority 2012, published 2014)
“Also recorded” adds a separate entry of the source. Like-named read-outs stand apart in the source and are kept apart here.

Legend:
[1] = tested on: MDA-MB-231 tumors; assay: Established subcutaneous MDA-MB-231 breast cancer xenograft; type: in vivo, mice; details: three times per week
From the text: Inhibition of Tumor Growth in Mice.
Toxicity as Measured by Weight Loss.
Triple negative breast cancer (TNBC) is a subtype characterized by lack of gene expression for estrogen, progesterone and Her2/neu. TNBC is difficult to treat, and its death rate is disproportionately higher than for any other subtype of breast cancer.

[2] = tested on: folate receptor-positive KB cells
Method: Inhibition of Cellular DNA Synthesis. The compounds described herein were evaluated using an in vitro cytotoxicity assay that predicts the ability of the drug to inhibit the growth of folate receptor-positive KB cells. The compounds were comprised of folate linked to a respective chemotherapeutic drug, as prepared according to the protocols described herein. The KB cells were exposed for up to 7 h at 37° C. to the indicated concentrations of folate-drug conjugate in the absence or presence of at least a 100-fold excess of folic acid. The cells were then rinsed once with fresh culture medium and incubated in fresh culture medium for 72 hours at 37° C. Cell viability was assessed using a ^3H-thymidine incorporation assay.
In vitro test against the various cancer cell lines. Cells are heavily seeded in 24-well Falcon plates and allowed to form nearly confluent monolayers overnight. Thirty minutes prior to the addition of the test compound, spent medium is aspirated from all wells and replaced with fresh folate-deficient RPMI medium (FFRPMI). A subset of wells are designated to receive media containing 100 μM folic acid. The cells in the designated wells are used to determine the targeting specificity. […] Following one rinse with 1 mL of fresh FFRPMI containing 10% heat-inactivated fetal calf serum, each well receives 1 mL of medium containing increasing concentrations of test compound (4 wells per sample) in the presence or absence of 100 μM free folic acid as indicated. Treated cells are pulsed for 2 h at 37° C., rinsed 4 times with 0.5 mL of media, and then chased in 1 mL of fresh medium up to 70 h. Spent medium is aspirated from all wells and replaced with fresh medium containing 5 μCi/mL ^3H-thymidine. Following a further 2 h 37° C. incubation, cells are washed 3 times with 0.5 mL of PBS and then treated with 0.5 mL of ice-cold 5% trichloroacetic acid per well. After 15 min, the trichloroacetic acid is aspirated and the cell material solubilized by the addition of 0.5 mL of 0.25 N sodium hydroxide for 15 min. A 450 μL aliquot of each solubilized sample is transferred to a scintillation vial containing 3 mL of Ecolume scintillation cocktail and then counted in a liquid scintillation counter. Final tabulated results are expressed as the percentage of ^3H-thymidine incorporation relative to untreated controls.
Folate receptor expressing cells. […] EC1456 was evaluated from 0.1-100 nM.

[3] = biological target: T1, folate receptors (FRs) (Homo sapiens, UniProt P15328); assay: Relative affinity assay (3H-folic acid displacement on KB cells); type: binding; details: compared to folic acid (relative affinity=1), 10% serum/FDRPMI
T1 construct: FR-positive KB cells were heavily seeded into 24-well cell culture plates; endogenous in cells; host or cells: KB cells (human cervical carcinoma)
T1 sequence (P15328 25-234): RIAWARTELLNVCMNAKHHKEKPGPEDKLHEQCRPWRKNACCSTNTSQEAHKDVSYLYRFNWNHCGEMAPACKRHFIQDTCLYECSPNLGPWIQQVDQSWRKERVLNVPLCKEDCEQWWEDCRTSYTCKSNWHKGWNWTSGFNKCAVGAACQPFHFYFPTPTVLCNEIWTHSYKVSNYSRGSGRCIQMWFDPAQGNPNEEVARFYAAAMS
Method: Relative Affinity Assay. The affinity for folate receptors (FRs) relative to folate was determined according to a previously described method (Westerhof, G. R., J. H. Schornagel, et al. (1995) Mol. Pharm. 48: 459-471) with slight modification. Briefly, FR-positive KB cells were heavily seeded into 24-well cell culture plates and allowed to adhere to the plastic for 18 h. Spent incubation media was replaced in designated wells with folate-free RPMI (FFRPMI) supplemented with 100 nM ^3H-folic acid in the absence and presence of increasing concentrations of test article or folic acid. Cells were incubated for 60 min at 37° C. and then rinsed 3 times with PBS, pH 7.4. Five hundred microliters of 1% SDS in PBS, pH 7.4, were added per well. Cell lysates were then collected and added to individual vials containing 5 mL of scintillation cocktail, and then counted for radioactivity. Negative control tubes contained only the ^3H-folic acid in FFRPMI (no competitor). Positive control tubes contained a final concentration of 1 mM folic acid, and CPMs measured in these samples (representing non-specific binding of label) were subtracted from all samples.

`CCCC(=O)OCN(C(=O)[C@@H](NC(=O)[C@H]1CCCCN1C)[C@@H](C)CC)[C@H](C[C@@H](OC(C)=O)c1nc(C(=O)N[C@@H](Cc2ccc(O)cc2)C[C@H](C)C(=O)NNC(=O)OCCSSC[C@@H](NC(=O)[C@H](CCC(=O)NC[C@H](O)[C@@H](O)[C@H](O)[C@H](O)CO)NC(=O)[C@@H](CCC(=O)O)NC(=O)[C@H](CCC(=O)NC[C@H](O)[C@@H](O)[C@H](O)[C@H](O)CO)NC(=O)[C@@H](CCC(=O)O)NC(=O)[C@H](CCC(=O)NC[C@H](O)[C@@H](O)[C@H](O)[C@H](O)CO)NC(=O)CC[C@@H](NC(=O)c2ccc(NCc3cnc4nc(N)[nH]c(=O)c4n3)cc2)C(=O)O)C(=O)O)cs1)C(C)C` [EC1456] was tested, and the “weight loss / gross whole animal toxicity (% weight change)” value ([1]; 2 μmmol/kg i.v., 2 weeks) was “did not cause gross whole animal toxicity; also recorded: not accompanied by significant weight loss”, the cures ([1]; 2 μmmol/kg intravenous, 2 consecutive weeks) was 4 of 5 and the “improvement in specificity compared to EC0531” value [2] was 4 fold. For the same compound, the “Competable up to 100 nM” value ([2]; KB) was “Yes”, the “In vitro specificity (fold)” value ([2]; difference in IC50 between competed and non-competed group) was 944 fold and the “specificity for the folate receptor as determined by folic acid competition” value ([2]; difference in IC50 between competed group and non-competed group) was “ca. 1000 fold”. The IC50 ([2]; read-out: 50% competition, competed group (excess folic acid)) was 1420 nM, the IC50 ([2]; read-out: EC1456 Activity (IC50), KB, FR status +++, evaluated from 0.1-100 nM) was 2.3 nM and the IC50 ([2]; read-out: In vitro IC50) was 1.5 nM. For the same compound, the “Relative Affinity” value [3] was 0.27.
